According to PMC10746543, “Design principles for cyclin K molecular glue degraders” (Nature Chemical Biology, 2023):
“And” between values parts separate entries of the source, which are not always exact repeats. Equal values may be shown once. Read-outs that look alike come from different tables or passages of the source.

Key:
CDK12–cyclin K and DDB1 [1] = target: T1, CDK12–cyclin K and DDB1 (Homo sapiens, UniProt Q16531+Q9NYV4, K965R); assay: TR-FRET ternary complex formation assay (compound titration); type: binding
T1 construct: His6–CDK12 (a.a. 713–1,052); full-length or beta-propeller B domain deletion (ΔBPB: a.a. 396–705 deleted) constructs of His6–DDB1ΔBPB, StrepII–Avi–DDB1, or His6–Spy–DDB1; made in house; host or cells: Trichoplusia ni High Five insect cells (baculovirus)
T1 sequence (Q9NYV4 713-1052 K965R): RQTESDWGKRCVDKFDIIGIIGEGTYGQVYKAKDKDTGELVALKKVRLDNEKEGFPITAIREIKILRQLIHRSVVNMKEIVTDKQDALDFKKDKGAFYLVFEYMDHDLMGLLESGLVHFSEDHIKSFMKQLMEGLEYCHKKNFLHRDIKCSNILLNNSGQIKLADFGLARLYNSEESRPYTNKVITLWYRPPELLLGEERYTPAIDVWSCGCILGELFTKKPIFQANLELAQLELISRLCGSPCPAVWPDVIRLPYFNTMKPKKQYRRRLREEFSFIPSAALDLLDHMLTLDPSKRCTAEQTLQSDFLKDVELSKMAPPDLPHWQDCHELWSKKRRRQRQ
T1 sequence (O75909 1-267 partner): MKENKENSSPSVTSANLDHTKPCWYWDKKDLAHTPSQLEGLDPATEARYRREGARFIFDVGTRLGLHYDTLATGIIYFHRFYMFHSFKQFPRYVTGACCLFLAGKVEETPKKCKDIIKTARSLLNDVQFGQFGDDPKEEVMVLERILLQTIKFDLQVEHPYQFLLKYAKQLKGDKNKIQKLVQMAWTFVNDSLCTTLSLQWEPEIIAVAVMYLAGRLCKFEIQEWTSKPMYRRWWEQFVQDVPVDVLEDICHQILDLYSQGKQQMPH
T1 sequence (Q16531 whole entry): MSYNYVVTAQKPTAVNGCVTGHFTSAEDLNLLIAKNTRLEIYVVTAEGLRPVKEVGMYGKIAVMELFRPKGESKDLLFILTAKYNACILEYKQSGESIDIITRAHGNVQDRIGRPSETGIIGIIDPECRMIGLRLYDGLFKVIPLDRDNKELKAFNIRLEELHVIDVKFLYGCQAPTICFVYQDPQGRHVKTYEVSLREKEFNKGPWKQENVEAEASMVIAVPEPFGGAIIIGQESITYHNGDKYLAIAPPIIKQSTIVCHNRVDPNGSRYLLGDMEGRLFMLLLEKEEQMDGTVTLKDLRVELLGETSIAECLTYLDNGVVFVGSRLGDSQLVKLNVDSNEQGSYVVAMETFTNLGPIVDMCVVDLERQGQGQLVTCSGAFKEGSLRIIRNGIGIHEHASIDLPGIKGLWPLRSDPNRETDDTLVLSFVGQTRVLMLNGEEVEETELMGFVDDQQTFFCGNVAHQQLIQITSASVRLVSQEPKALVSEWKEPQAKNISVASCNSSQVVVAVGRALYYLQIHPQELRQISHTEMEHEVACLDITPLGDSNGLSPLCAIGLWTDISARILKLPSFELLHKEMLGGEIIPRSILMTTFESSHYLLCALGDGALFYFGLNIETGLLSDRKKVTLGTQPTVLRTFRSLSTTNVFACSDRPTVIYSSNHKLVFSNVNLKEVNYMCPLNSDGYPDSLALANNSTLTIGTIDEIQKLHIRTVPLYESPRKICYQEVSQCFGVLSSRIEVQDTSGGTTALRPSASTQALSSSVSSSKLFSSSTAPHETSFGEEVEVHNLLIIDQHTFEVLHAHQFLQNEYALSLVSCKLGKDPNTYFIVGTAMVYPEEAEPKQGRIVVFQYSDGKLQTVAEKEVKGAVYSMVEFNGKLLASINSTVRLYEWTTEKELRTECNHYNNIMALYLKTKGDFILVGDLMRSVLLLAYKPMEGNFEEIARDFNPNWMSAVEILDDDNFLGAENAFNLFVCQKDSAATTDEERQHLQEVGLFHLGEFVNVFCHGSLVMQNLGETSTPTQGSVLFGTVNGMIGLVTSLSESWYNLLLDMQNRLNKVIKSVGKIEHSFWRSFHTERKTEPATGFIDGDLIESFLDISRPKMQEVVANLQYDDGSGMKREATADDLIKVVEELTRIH
Procedure, shortened: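 Delayed (70 μs) time-resolved read; FRET computed as 520 nm over 490 nm emission.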

CDK12–cyclin K and DDB1 [2] = target: T1, CDK12–cyclin K and DDB1; assay: TR-FRET Kd determination, quadratic fit, 50 nM or 10 nM CDK12–cyclin K; type: binding; conditions: for Kd: n = 1
From the text: Equation (2) is a quadratic binding equation used for Kd determination,where Top and Bottom refer to the curve plateaus. […]

[3] = test system: cyclin K–eGFP degradation reporter; assay: Cyclin K reporter stability analysis (dual-color cyclin K–eGFP reporter); type: cell-based, human; conditions: Supplementary Table 2; HEK293T cycK-eGFP reporter, 5 h; read-out: Cellular assays DC50
Procedure, shortened: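 Readout was the eGFP-to-mCherry geometric-mean ratio by flow cytometry, normalized to three DMSO controls, after 5 h drug exposure. Cells used were HEK293T–Cas9 expressing the dual-colour cyclin K–eGFP degradation reporter.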

HEK293T cells = assay: Drug sensitivity assay (CellTiter-Glo viability) with or without MLN4924 pretreatment; type: cell-based, human; conditions: for EC50: Homo sapiens, HEK-293T
Procedure, shortened: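 Viability of HEK293T–Cas9 cells was compared after 3-day drug treatment with or without 100 nM MLN4924 pretreatment (2 h, versus DMSO). Values are CellTiter-Glo signals relative to DMSO controls.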

TR-FRET signal, individual replicate (CDK12–cyclin K and DDB1 [1]; compound concentration 0.468 nM): 0.2708 and 0.2758 and 0.8924 and 0.6371 | TR-FRET signal, individual replicate (CDK12–cyclin K and DDB1 [1]; compound concentration 2.16 nM): 0.3875 and 0.4113 and 0.3298 and 0.5644 | TR-FRET signal, individual replicate (CDK12–cyclin K and DDB1 [1]; compound concentration 3.6 nM): 0.6563 and 0.6817 and 0.5785 and 0.7591 | TR-FRET signal, individual replicate (CDK12–cyclin K and DDB1 [1]; compound concentration 7.92001 nM): 1.219 and 1.2973 and 0.9793 and 1.183 | TR-FRET signal, individual replicate (CDK12–cyclin K and DDB1 [1]; compound concentration 15.84 nM): 2.2073 and 2.2521 and 2.043 and 2.171 | TR-FRET signal, individual replicate (CDK12–cyclin K and DDB1 [1]; compound concentration 30.96 nM): 3.25 and 3.347 and 3.281 and 3.173 | TR-FRET signal, individual replicate (CDK12–cyclin K and DDB1 [1]; compound concentration 62.6401 nM): 3.39 and 3.868 and 3.793 and 3.73 | TR-FRET signal, individual replicate (CDK12–cyclin K and DDB1 [1]; compound concentration 125.28 nM): 3.865 and 4.101 and 4.033 and 4.091 | TR-FRET signal, individual replicate (CDK12–cyclin K and DDB1 [1]; compound concentration 244.8 nM): 3.936 and 4.169 and 4.142 and 4.064 | TR-FRET signal, individual replicate (CDK12–cyclin K and DDB1 [1]; compound concentration 993.601 nM): 4.054 and 4.241 and 4.216 and 4.146 | TR-FRET signal, individual replicate (CDK12–cyclin K and DDB1 [1]; compound concentration 2001.6 nM): 3.9849 and 4.219 and 4.148 and 4.067 | DDB1–CDK12 complex formation, result in words (CDK12–cyclin K and DDB1 [1]; in vitro TR-FRET): activity equivalent to CR8 | EC50 (CDK12–cyclin K and DDB1 [1]; in vitro complex formation, 50 nM CDK12–cyclin K, 100 nM DDB1, text and figures, read-out: TR-FRET EC50): 17 ± 1 nM | EC50 (CDK12–cyclin K and DDB1 [1]; sheet MOESM7, read-out: log TR-FRET EC50 (converted)): 16.7 nM | EC50 (CDK12–cyclin K and DDB1 [1]; source data sheet correlations, read-out: TR-FRET EC50): 16.7 nM | Kd (CDK12–cyclin K and DDB1 [2]; 10 nM CDK12-cyclin K + 100 nM DDB1): 4 ± 1 nM | TR-FRET signal (CDK12–cyclin K and DDB1 [2]; 10 nM CDK12-cyclin K, compound 0.468 nM): 0.1087 | TR-FRET signal (CDK12–cyclin K and DDB1 [2]; 10 nM CDK12-cyclin K, compound 2.16 nM): 0.1516 | TR-FRET signal (CDK12–cyclin K and DDB1 [2]; 10 nM CDK12-cyclin K, compound 3.6 nM): 0.2175 | TR-FRET signal (CDK12–cyclin K and DDB1 [2]; 10 nM CDK12-cyclin K, compound 7.92 nM): 0.2964 | TR-FRET signal (CDK12–cyclin K and DDB1 [2]; 10 nM CDK12-cyclin K, compound 15.84 nM): 0.3471 | TR-FRET signal (CDK12–cyclin K and DDB1 [2]; 10 nM CDK12-cyclin K, compound 30.96 nM): 0.4043 | TR-FRET signal (CDK12–cyclin K and DDB1 [2]; 10 nM CDK12-cyclin K, compound 62.6399 nM): 0.4639 | TR-FRET signal (CDK12–cyclin K and DDB1 [2]; 10 nM CDK12-cyclin K, compound 125.279 nM): 0.4363 | TR-FRET signal (CDK12–cyclin K and DDB1 [2]; 10 nM CDK12-cyclin K, compound 244.8 nM): 0.4586 | TR-FRET signal (CDK12–cyclin K and DDB1 [2]; 10 nM CDK12-cyclin K, compound 993.6 nM): 0.4753 | TR-FRET signal (CDK12–cyclin K and DDB1 [2]; 10 nM CDK12-cyclin K, compound 2001.6 nM): 0.4769 | Kd (CDK12–cyclin K and DDB1 [2]; 50 nM CDK12-cyclin K + 100 nM DDB1): 6 ± 2 nM | TR-FRET signal (CDK12–cyclin K and DDB1 [2]; 50 nM CDK12-cyclin K, compound 0.468 nM): 0.2249 | TR-FRET signal (CDK12–cyclin K and DDB1 [2]; 50 nM CDK12-cyclin K, compound 2.16 nM): 0.2842 | TR-FRET signal (CDK12–cyclin K and DDB1 [2]; 50 nM CDK12-cyclin K, compound 3.6 nM): 0.3938 | TR-FRET signal (CDK12–cyclin K and DDB1 [2]; 50 nM CDK12-cyclin K, compound 7.92 nM): 0.6539 | TR-FRET signal (CDK12–cyclin K and DDB1 [2]; 50 nM CDK12-cyclin K, compound 15.84 nM): 1.0227 | TR-FRET signal (CDK12–cyclin K and DDB1 [2]; 50 nM CDK12-cyclin K, compound 30.96 nM): 1.706 | TR-FRET signal (CDK12–cyclin K and DDB1 [2]; 50 nM CDK12-cyclin K, compound 62.6399 nM): 2.089 | TR-FRET signal (CDK12–cyclin K and DDB1 [2]; 50 nM CDK12-cyclin K, compound 125.279 nM): 2.303 | TR-FRET signal (CDK12–cyclin K and DDB1 [2]; 50 nM CDK12-cyclin K, compound 244.8 nM): 2.498 | TR-FRET signal (CDK12–cyclin K and DDB1 [2]; 50 nM CDK12-cyclin K, compound 993.6 nM): 2.704 | TR-FRET signal (CDK12–cyclin K and DDB1 [2]; 50 nM CDK12-cyclin K, compound 2001.6 nM): 2.6928 | DC50 [3]: 1030 nM
SMILES: CCC(CO)Nc1nc(NCc2ccc(-c3ccccc3)cc2)c2ncn(C(C)C)c2n1 (centres unmarked) [DS16]
EC50 (HEK293T cells; Supplementary Fig. 5, HEK293T, CellTiter Glo, 72h, pre-treatment with 100 nM MLN4924, read-out: Viability EC50, with MLN4924): 15000 nM | EC50 (HEK293T cells; Supplementary Table 2, HEK293T viability, 72 h, compound alone, read-out: Cellular assays EC50): 600 nM | % MLN4924 rescue (HEK293T cells; PCA input): 1490% | Toxicity rescue (HEK293T cells; Supplementary Table 2, MLN4924-mediated cytotoxicity rescue, 10 µM used where n.d.): 1567%
